Data taken from patent US20180064714A1 (Mylan Laboratories Ltd, priority 2015, published 2018).

Assays:
[1] = Physical and chemical stability on storage, analysed by PXRD for polymorph integrity; assay type: physicochemical
Experimental: The Cu-anode X-ray tube was operated at 40 kV and 30 mA. The experiments were conducted over the 2θ range of 2.0°-50.0°, 0.030° step size and 0.4 seconds step time.
The Cu-anode X-ray tube was operated at 40 kV and 30 mA. The experiments were conducted over the […] of 2.0°-50.0°, 0.030° step size and 0.4 seconds step time.
As used herein, a compound or pharmaceutical composition is considered “stable” where the HPLC purity of the compound or premix changes by less than about 1% when stored at 5° C.±3° C. and/or at 25° C./60% relative humidity (RH). In certain embodiments, the “stable” compound or premix is stored at 5° C.±3° C. In other embodiments, the “stable” compound or premix is stored at 25° C./60% relative humidity (RH).

[2] = cited from earlier work

SMILES	Initial PXRD analysis ([1]; at 5° C. ± 3° C.)	Initial PXRD analysis ([1]; at 25° C./60% RH)	Initial PXRD analysis ([1]; at 40° C./75% RH)	Solubility in water [2]
CC[C@H](Nc1ncnc2nc[nH]c12)c1nc2cccc(F)c2c(=O)n1-c1ccccc1 [Amorphous Idelalisib, 5-fluoro-3-phenyl-2-[(1S)-1-(7H-purin-6-ylamino)propyl]-4(3H)-quinazolinone]	Amorphous	Amorphous	Amorphous	
CC[C@H](Nc1ncnc2[nH]cnc12)c1nc2cccc(F)c2c(=O)n1-c1ccccc1 [Idelalisib, 5-fluoro-3-phenyl-2-[(1S)-1-(7H-purin-6-ylamino)propyl]-4(3H)-quinazolinone]				poorly soluble
